Data from patent publication US20230122344A1, “ANTAGONISTS OF THE MUSCARINIC ACETYLCHOLINE RECEPTOR M4” (Vanderbilt University, priority 2019, published 2023).

Target: T1, Human M4 (Homo sapiens, UniProt P08173)
T1 construct: expressed in transfected cells; host or cells: CHO-K1 (ATCC), co-transfected with chimeric G protein Gqi5
T1 sequence (P08173 1-479): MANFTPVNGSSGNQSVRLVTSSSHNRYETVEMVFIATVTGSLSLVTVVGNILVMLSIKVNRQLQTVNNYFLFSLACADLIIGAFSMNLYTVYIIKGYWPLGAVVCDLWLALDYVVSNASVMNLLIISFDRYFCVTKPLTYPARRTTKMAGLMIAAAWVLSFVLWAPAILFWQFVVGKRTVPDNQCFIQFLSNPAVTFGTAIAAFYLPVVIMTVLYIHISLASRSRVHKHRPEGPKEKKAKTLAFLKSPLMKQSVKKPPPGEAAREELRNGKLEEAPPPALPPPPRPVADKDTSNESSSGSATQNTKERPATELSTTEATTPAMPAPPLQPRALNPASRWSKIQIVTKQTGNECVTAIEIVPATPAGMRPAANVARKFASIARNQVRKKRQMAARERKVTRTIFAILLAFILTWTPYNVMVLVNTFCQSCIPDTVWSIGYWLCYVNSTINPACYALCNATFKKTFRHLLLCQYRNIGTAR
Test: mAChR M4 cell-based functional assay (calcium flux, antagonism of EC80 acetylcholine response)
Settings: M4/Gqi5/CHO-K1 cells; for remaining activity at 30 µM: CHO-K1, % ACh maximum at 30 μM, read-out: Human M4 Emin; for IC50: decrease of response elicited by EC80 acetylcholine; for Human M4 Emin: % ACh maximum at 30 μM
Method: Human or rat M4 cDNA, along with the chimeric G protein Gqi5, were transfected into Chinese hamster ovary (CHO-K1) cells purchased from the American Type Culture Collection using Lipofectamine2000. M4/Gqi5/CHO cells were grown in Ham's F-12 medium containing 10% heat-inactivated fetal bovine serum (FBS), 20 mM HEPES, 500 μg/mL G418 sulfate, and 200 μg/mL Hygromycin B.
For high throughput measurement of agonist-evoked increases in intracellular calcium, CHO-K1 cells stably expressing muscarinic receptors were plated in growth medium lacking G418 and hygromycin at 15,000 cells/20 μL/well in Greiner 384-well black-walled, tissue culture (TC)-treated, clear-bottom plates (VWR). Cells were incubated overnight at 37° C. and 5% CO2. The next day, cells were washed using an ELX 405 (BioTek) with assay buffer; the final volume was then aspirated to 20 μL. Next, 20 μL of a 2.3 μM stock of Fluo-4/acetoxymethyl ester (Invitrogen, Carlsbad, Calif.), prepared as a 2.3 mM stock in DMSO and mixed in a 1:1 ratio with 10% (w/v) Pluronic F-127 and diluted in assay buffer, was added to the wells and the cell plates were incubated for 50 min at 37° C. and 5% CO2. Dye was removed by washing with the ELX 405 and the final volume was aspirated to 20 μL. Compound master plates were formatted in a 10 point concentration-response curve (CRC) format (1:3 dilutions) in 100% DMSO with a starting concentration of 10 or 1 mM using a BRAVO liquid handler (Agilent). Test compound CRCs were then transferred to daughter plates (240 nL) using the Echo acoustic plate reformatter (Labcyte, Sunnyvale, Calif.) and then diluted into assay buffer (40 μL) to a 2× stock using a Thermo Fisher Combi (Thermo Fisher Scientific, Waltham, Mass.).
Calcium flux was measured using the Functional Drug Screening System (FDSS) 6000 or 7000 (Hamamatsu Corporation, Tokyo, Japan) as an increase in the fluorescent static ratio. Compounds were applied to cells (20 μL, 2×) using the automated system of the FDSS at 2 seconds into the protocol and the data were collected at 1 Hz. At 143 s, 10 μL of an EC20 concentration of the muscarinic receptor agonist acetylcholine was added (5×), followed by the addition of 12 μL of an EC80 concentration of acetylcholine at the 268 s time point (5×). Agonist activity was analyzed as a concentration-dependent increase in calcium mobilization upon compound addition. Positive allosteric modulator activity was analyzed as a concentration-dependent increase in the EC20 acetylcholine response. Antagonist activity was analyzed as a concentration-dependent decrease in the EC80 acetylcholine response; for the purposes of the tables herein, an IC50 (inhibitory concentration 50) was calculated as a concentration-dependent decrease of the response elicited by an EC80 concentration of acetylcholine. Concentration-response curves were generated using a four-parameter logistical equation in XLFit curve fitting software (IDBS, Bridgewater, N.J.) for Excel (Microsoft, Redmond, Wash.) or Prism (GraphPad Software, Inc., San Diego, Calif.) or the Dotmatics software platform (Dotmatics, Bishop's Stortford, UK).
Compounds were synthesized as described above. Activity (IC50 and Emin) was determined in the mAChR M4 cell-based functional assay as described above and the data are shown in Table 2.

Compound	remaining activity at 30 µM [%]	IC50 [nM]	Human M4 Emin [%]
COc1cc(-c2cccc(F)c2)nnc1N[C@H]1C[C@@H]2CN(CC3CCOCC3)C[C@@H]2C1 [compound 1, (3aR,5s,6aS)-N-(6-(3-fluorophenyl)-4-methoxypyridazin-3-yl)-2-((tetrahydro-2H-pyran-4-yl)methyl)octahydrocyclopenta[c]pyrrol-5-amine]	5	10.8	–
COc1cc(-c2ccccc2F)nnc1N[C@H]1C[C@@H]2CN(CC3CCOCC3)C[C@@H]2C1 [compound 2, (3aR,5s,6aS)-N-(6-(2-fluorophenyl)-4-methoxypyridazin-3-yl)-2-((tetrahydro-2H-pyran-4-yl)methyl)octahydrocyclopenta[c]pyrrol-5-amine]	3	10.5	–
COc1cc(-c2ccc(F)cc2)nnc1N[C@H]1C[C@@H]2CN(CC3CCOCC3)C[C@@H]2C1 [compound 3, (3aR,5s,6aS)-N-(6-(4-fluorophenyl)-4-methoxypyridazin-3-yl)-2-((tetrahydro-2H-pyran-4-yl)methyl)octahydrocyclopenta[c]pyrrol-5-amine]	5	48.4	–
COc1cc(-c2cc(F)ccc2F)nnc1N[C@H]1C[C@@H]2CN(CC3CCOCC3)C[C@@H]2C1 [compound 4, (3aR,5s,6aS)-N-(6-(2,5-difluorophenyl)-4-methoxypyridazin-3-yl)-2-((tetrahydro-2H-pyran-4-yl)methyl)octahydrocyclopenta[c]pyrrol-5-amine]	3	12	–
COc1cc(-c2ccc3nn(C)cc3c2)nnc1N[C@H]1C[C@@H]2CN(CC3CCOCC3)C[C@@H]2C1 [compound 5, (3aR,5s,6aS)-N-(4-methoxy-6-(2-methyl-2H-indazol-5-yl)pyridazin-3-yl)-2-((tetrahydro-2H-pyran-4-yl)methyl)octahydrocyclopenta[c]pyrrol-5-amine]	3	3.89	–
COc1cc(-c2cc3cn(C)nc3cc2F)nnc1N[C@H]1C[C@@H]2CN(CC3CCOCC3)C[C@@H]2C1 [compound 6, (3aR,5s,6aS)-N-(6-(6-fluoro-2-methyl-2H-indazol-5-yl)-4-methoxypyridazin-3-yl)-2-((tetrahydro-2H-pyran-4-yl)methyl)octahydrocyclopenta[c]pyrrol-5-amine]	4	44	–
COc1cc(-c2cc(F)ccc2C)nnc1N[C@H]1C[C@@H]2CN(CC3CCOCC3)C[C@@H]2C1 [compound 7, (3aR,5s,6aS)-N-(6-(5-fluoro-2-methylphenyl)-4-methoxypyridazin-3-yl)-2-((tetrahydro-2H-pyran-4-yl)methyl)octahydrocyclopenta[c]pyrrol-5-amine]	9	6.84	–
Cc1ccc(F)cc1-c1cc(S(C)(=O)=O)c(N[C@H]2C[C@@H]3CN(CC4CCOCC4)C[C@@H]3C2)nn1 [compound 9, (3aR,5s,6aS)-N-(6-(5-fluoro-2-methylphenyl)-4-(methylsulfonyl)pyridazin-3-yl)-2-((tetrahydro-2H-pyran-4-yl)methyl)octahydrocyclopenta[c]pyrrol-5-amine]	3	18.4	–
Cc1ccc(F)cc1-c1cc(-c2cc(F)ccc2C)c(N[C@H]2C[C@@H]3CN(CC4CCOCC4)C[C@@H]3C2)nn1 [compound 10, (3aR,5s,6aS)-N-(4,6-bis(5-fluoro-2-methylphenyl)pyridazin-3-yl)-2-((tetrahydro-2H-pyran-4-yl)methyl)octahydrocyclopenta[c]pyrrol-5-amine]	3	384	–
Cc1ccc(F)cc1-c1nnc(N[C@H]2C[C@@H]3CN(CC4CCOCC4)C[C@@H]3C2)cc1C [compound 12, (3aR,5s,6aS)-N-(6-(5-fluoro-2-methylphenyl)-5-methylpyridazin-3-yl)-2-((tetrahydro-2H-pyran-4-yl)methyl)octahydrocyclopenta[c]pyrrol-5-amine]	2	2.55	–
Cc1cc(N[C@H]2C[C@@H]3CN(CC4CCOCC4)C[C@@H]3C2)nnc1-c1cc(F)ccc1Cl [compound 14, (3aR,5s,6aS)-N-(6-(2-chloro-5-fluorophenyl)-5-methylpyridazin-3-yl)-2-((tetrahydro-2H-pyran-4-yl)methyl)octahydrocyclopenta[c]pyrrol-5-amine]	3	2.36	–

Stronger by IC50, values ahead:

remaining activity at 30 µM [%]	IC50 [nM]	Human M4 Emin [%]	Compound
3	1.98	–	Fc1cc(F)c(F)c(-c2nnc(N[C@H]3C[C@@H]4CN(CC5CCCCO5)C[C@@H]4C3)cc2C(F)F)c1 (single isomer, unassigned) [compound 46]
–	2.02	2	Fc1cc(F)c(F)c(-c2nnc(N[C@H]3C[C@@H]4CN(CC5CCCCO5)C[C@@H]4C3)cc2C(F)F)c1 (single isomer, unassigned) [compound 47]
2	1.3	–	Fc1cc(F)c(F)c(-c2nnc(N[C@H]3C[C@@H]4CN(CC5CCCOC5)C[C@@H]4C3)cc2C(F)F)c1 (single isomer, unassigned) [compound 48]
–	1.64	2	Fc1cc(F)c(F)c(-c2nnc(N[C@H]3C[C@@H]4CN(CC5CCCOC5)C[C@@H]4C3)cc2C(F)F)c1 (single isomer, unassigned) [compound 49]
4	2.04	–	COc1cc(-c2ccc3nn(C)cc3c2C)nnc1N[C@H]1C[C@@H]2CN(CC3CCOCC3)C[C@@H]2C1 [compound 8, (3aR,5s,6aS)-N-(6-(2,4-dimethyl-2H-indazol-5-yl)-4-methoxypyridazin-3-yl)-2-((tetrahydro-2H-pyran-4-yl)methyl)octahydrocyclopenta[c]pyrrol-5-amine]
3	1	–	[2H]C([2H])(C1CCOCC1)N1C[C@H]2C[C@H](Nc3nnc(-c4cc(F)ccc4F)cc3C)C[C@H]2C1 [compound 11, (3aR,5s,6aS)-N-(6-(2,5-difluorophenyl)-4-methylpyridazin-3-yl)-2-((tetrahydro-2H-pyran-4-yl)methyl-d2)octahydrocyclopenta[c]pyrrol-5-amine]
5	0.14	–	Cc1cc(N[C@H]2C[C@@H]3CN(CC4CCOCC4)C[C@@H]3C2)nnc1-c1cc(F)ccc1F [compound 13, (3aR,5s,6aS)-N-(6-(2,5-difluorophenyl)-5-methylpyridazin-3-yl)-2-((tetrahydro-2H-pyran-4-yl)methyl)octahydrocyclopenta[c]pyrrol-5-amine]
3	1.1	–	Cc1cc(N[C@H]2C[C@@H]3CN(CC4CCOCC4)C[C@@H]3C2)nnc1-c1ccc2nn(C)cc2c1 [compound 15, (3aR,5s,6aS)-N-(5-methyl-6-(2-methyl-2H-indazol-5-yl)pyridazin-3-yl)-2-((tetrahydro-2H-pyran-4-yl)methyl)octahydrocyclopenta[c]pyrrol-5-amine]
